# Data as given in patent US12390441B2, “Immunomodulating o-het/aryl azalides” (Zoetis Services LLC, priority 2020, dated 2025).
# Marks after values point to notes of the source that are not given here.
# System: BRD pathogens, M. haemolytica and P. multocida
# Test: In-vitro MIC model, BRD pathogen screening panel
# Assay type: cell-based, Mannheimia haemolytica; Pasteurella multocida
# Conditions: at least one BRD strain
row,Structure (SMILES),MIC flag at the example number (Table E)
1,CCCNC[C@]1(O)[C@H](C)O[C@@H](O[C@H]2[C@H](C)[C@@H](O[C@@H]3O[C@H](C)C[C@H](NC)[C@H]3Oc3cc(F)cc(F)c3)[C@](C)(O)C[C@@H](C)CN[C@H](C)[C@@H](O)[C@](C)(O)[C@@H](CC)OC(=O)[C@@H]2C)C[C@@]1(C)OC [Example E-16],E-16* (MIC ≤ 64 μg/mL for at least one BRD strain)
2,CCCNC[C@]1(O)[C@H](C)O[C@@H](O[C@H]2[C@H](C)[C@@H](O[C@@H]3O[C@H](C)C[C@H](NC)[C@H]3Oc3cc(F)ccc3OC)[C@](C)(O)C[C@@H](C)CN[C@H](C)[C@@H](O)[C@](C)(O)[C@@H](CC)OC(=O)[C@@H]2C)C[C@@]1(C)OC [Example E-17],E-17* (MIC ≤ 64 μg/mL for at least one BRD strain)
3,CCCNC[C@]1(O)[C@H](C)O[C@@H](O[C@H]2[C@H](C)[C@@H](O[C@@H]3O[C@H](C)C[C@H](NC)[C@H]3Oc3cc(OC)ccc3F)[C@](C)(O)C[C@@H](C)CN[C@H](C)[C@@H](O)[C@](C)(O)[C@@H](CC)OC(=O)[C@@H]2C)C[C@@]1(C)OC [Example E-18],E-18* (MIC ≤ 64 μg/mL for at least one BRD strain)
4,CCCNC[C@]1(O)[C@H](C)O[C@@H](O[C@H]2[C@H](C)[C@@H](O[C@@H]3O[C@H](C)C[C@H](NC)[C@H]3Oc3cccc(Cl)c3)[C@](C)(O)C[C@@H](C)CN[C@H](C)[C@@H](O)[C@](C)(O)[C@@H](CC)OC(=O)[C@@H]2C)C[C@@]1(C)OC [Example E-21],E-21* (MIC ≤ 64 μg/mL for at least one BRD strain)
5,CCCNC[C@]1(O)[C@H](C)O[C@@H](O[C@H]2[C@H](C)[C@@H](O[C@@H]3O[C@H](C)C[C@H](NC)[C@H]3Oc3ccc(F)c(C)c3)[C@](C)(O)C[C@@H](C)CN[C@H](C)[C@@H](O)[C@](C)(O)[C@@H](CC)OC(=O)[C@@H]2C)C[C@@]1(C)OC [Example E-22],E-22* (MIC ≤ 64 μg/mL for at least one BRD strain)
6,CCCNC[C@]1(O)[C@H](C)O[C@@H](O[C@H]2[C@H](C)[C@@H](O[C@@H]3O[C@H](C)C[C@H](NC)[C@H]3Oc3ccc(F)cc3C)[C@](C)(O)C[C@@H](C)CN[C@H](C)[C@@H](O)[C@](C)(O)[C@@H](CC)OC(=O)[C@@H]2C)C[C@@]1(C)OC [Example E-23],E-23* (MIC ≤ 64 μg/mL for at least one BRD strain)
7,CCCNC[C@]1(O)[C@H](C)O[C@@H](O[C@H]2[C@H](C)[C@@H](O[C@@H]3O[C@H](C)C[C@H](N(C)C)[C@H]3Oc3ccc(OC)c(OC(C)C)c3)[C@](C)(O)C[C@@H](C)CN[C@H](C)[C@@H](O)[C@](C)(O)[C@@H](CC)OC(=O)[C@@H]2C)C[C@@]1(C)OC [Example E-29],E-29* (MIC ≤ 64 μg/mL for at least one BRD strain)
8,CCCNC[C@]1(O)[C@H](C)O[C@@H](O[C@H]2[C@H](C)[C@@H](O[C@@H]3O[C@H](C)C[C@H](NC)[C@H]3Oc3ccncc3)[C@](C)(O)C[C@@H](C)CN[C@H](C)[C@@H](O)[C@](C)(O)[C@@H](CC)OC(=O)[C@@H]2C)C[C@@]1(C)OC [Example E-32],E-32* (MIC ≤ 64 μg/mL for at least one BRD strain)
9,CCCNC[C@]1(O)[C@H](C)O[C@@H](O[C@H]2[C@H](C)[C@@H](O[C@@H]3O[C@H](C)C[C@H](NC)[C@H]3Oc3ncccn3)[C@](C)(O)C[C@@H](C)CN[C@H](C)[C@@H](O)[C@](C)(O)[C@@H](CC)OC(=O)[C@@H]2C)C[C@@]1(C)OC [Example E-33],E-33* (MIC ≤ 64 μg/mL for at least one BRD strain)
10,CCCNC[C@]1(O)[C@H](C)O[C@@H](O[C@H]2[C@H](C)[C@@H](O[C@@H]3O[C@H](C)C[C@H](NC)[C@H]3Oc3ccc([N+](=O)[O-])cc3)[C@](C)(O)C[C@@H](C)CN[C@H](C)[C@@H](O)[C@](C)(O)[C@@H](CC)OC(=O)[C@@H]2C)C[C@@]1(C)OC [Example E-35],E-35* (MIC ≤ 64 μg/mL for at least one BRD strain)
11,CCCNC[C@]1(O)[C@H](C)O[C@@H](O[C@H]2[C@H](C)[C@@H](O[C@@H]3O[C@H](C)C[C@H](NC)[C@H]3Oc3cccnc3C)[C@](C)(O)C[C@@H](C)CN[C@H](C)[C@@H](O)[C@](C)(O)[C@@H](CC)OC(=O)[C@@H]2C)C[C@@]1(C)OC [Example E-44],E-44* (MIC ≤ 64 μg/mL for at least one BRD strain)
12,CCCNC[C@]1(O)[C@H](C)O[C@@H](O[C@H]2[C@H](C)[C@@H](O[C@@H]3O[C@H](C)C[C@H](NC)[C@H]3Oc3cc(C)ccc3F)[C@](C)(O)C[C@@H](C)CN[C@H](C)[C@@H](O)[C@](C)(O)[C@@H](CC)OC(=O)[C@@H]2C)C[C@@]1(C)OC [Example E-53],E-53* (MIC ≤ 64 μg/mL for at least one BRD strain)
13,CCCNC[C@]1(O)[C@H](C)O[C@@H](O[C@H]2[C@H](C)[C@@H](O[C@@H]3O[C@H](C)C[C@H](NC)[C@H]3Oc3cccc(OC(F)(F)F)c3)[C@](C)(O)C[C@@H](C)CN[C@H](C)[C@@H](O)[C@](C)(O)[C@@H](CC)OC(=O)[C@@H]2C)C[C@@]1(C)OC [Example E-54],E-54* (MIC ≤ 64 μg/mL for at least one BRD strain)
14,CCCNC[C@]1(O)[C@H](C)O[C@@H](O[C@H]2[C@H](C)[C@@H](O[C@@H]3O[C@H](C)C[C@H](NC)[C@H]3Oc3ccc(F)c(F)c3F)[C@](C)(O)C[C@@H](C)CN[C@H](C)[C@@H](O)[C@](C)(O)[C@@H](CC)OC(=O)[C@@H]2C)C[C@@]1(C)OC [Example E-55],E-55* (MIC ≤ 64 μg/mL for at least one BRD strain)
15,CCCNC[C@]1(O)[C@H](C)O[C@@H](O[C@H]2[C@H](C)[C@@H](O[C@@H]3O[C@H](C)C[C@H](NC)[C@H]3Oc3ccc(F)cc3F)[C@](C)(O)C[C@@H](C)CN[C@H](C)[C@@H](O)[C@](C)(O)[C@@H](CC)OC(=O)[C@@H]2C)C[C@@]1(C)OC [Example E-58],E-58* (MIC ≤ 64 μg/mL for at least one BRD strain)
16,CCCNC[C@]1(O)[C@H](C)O[C@@H](O[C@H]2[C@H](C)[C@@H](O[C@@H]3O[C@H](C)C[C@H](NC)[C@H]3Oc3cccnc3OCC)[C@](C)(O)C[C@@H](C)CN[C@H](C)[C@@H](O)[C@](C)(O)[C@@H](CC)OC(=O)[C@@H]2C)C[C@@]1(C)OC [Example E-59],E-59* (MIC ≤ 64 μg/mL for at least one BRD strain)
17,CCCNC[C@]1(O)[C@H](C)O[C@@H](O[C@H]2[C@H](C)[C@@H](O[C@@H]3O[C@H](C)C[C@H](NC)[C@H]3Oc3cccc4cc[nH]c34)[C@](C)(O)C[C@@H](C)CN[C@H](C)[C@@H](O)[C@](C)(O)[C@@H](CC)OC(=O)[C@@H]2C)C[C@@]1(C)OC [Example E-65],E-65* (MIC ≤ 64 μg/mL for at least one BRD strain)
18,CCCNC[C@]1(O)[C@H](C)O[C@@H](O[C@H]2[C@H](C)[C@@H](O[C@@H]3O[C@H](C)C[C@H](NC)[C@H]3Oc3ccccc3S(C)(=O)=O)[C@](C)(O)C[C@@H](C)CN[C@H](C)[C@@H](O)[C@](C)(O)[C@@H](CC)OC(=O)[C@@H]2C)C[C@@]1(C)OC [Example E-66],E-66* (MIC ≤ 64 μg/mL for at least one BRD strain)
19,CCCNC[C@]1(O)[C@H](C)O[C@@H](O[C@H]2[C@H](C)[C@@H](O[C@@H]3O[C@H](C)C[C@H](N(C)C)[C@H]3Oc3cncc(C(F)(F)F)c3)[C@](C)(O)C[C@@H](C)CN[C@H](C)[C@@H](O)[C@](C)(O)[C@@H](CC)OC(=O)[C@@H]2C)C[C@@]1(C)OC [Example E-70],E-70* (MIC ≤ 64 μg/mL for at least one BRD strain)
20,CCCNC[C@]1(O)[C@H](C)O[C@@H](O[C@H]2[C@H](C)[C@@H](O[C@@H]3O[C@H](C)C[C@H](NC)[C@H]3Oc3ccc(OC)c(OC)c3)[C@](C)(O)C[C@@H](C)CN[C@H](C)[C@@H](O)[C@](C)(O)[C@@H](CC)OC(=O)[C@@H]2C)C[C@@]1(C)OC [Example E-74],E-74* (MIC ≤ 64 μg/mL for at least one BRD strain)
21,CCCNC[C@]1(O)[C@H](C)O[C@@H](O[C@H]2[C@H](C)[C@@H](O[C@@H]3O[C@H](C)C[C@H](NC)[C@H]3Oc3ccc(-n4cccc4)cc3)[C@](C)(O)C[C@@H](C)CN[C@H](C)[C@@H](O)[C@](C)(O)[C@@H](CC)OC(=O)[C@@H]2C)C[C@@]1(C)OC [Example E-82],E-82* (MIC ≤ 64 μg/mL for at least one BRD strain)
22,CCCNC[C@]1(O)[C@H](C)O[C@@H](O[C@H]2[C@H](C)[C@@H](O[C@@H]3O[C@H](C)C[C@H](N(C)C)[C@H]3Oc3ccccc3Cl)[C@](C)(O)C[C@@H](C)CN[C@H](C)[C@@H](O)[C@](C)(O)[C@@H](CC)OC(=O)[C@@H]2C)C[C@@]1(C)OC [Example E-83],E-83* (MIC ≤ 64 μg/mL for at least one BRD strain)
23,CCCNC[C@]1(O)[C@H](C)O[C@@H](O[C@H]2[C@H](C)[C@@H](O[C@@H]3O[C@H](C)C[C@H](N(C)C)[C@H]3Oc3ccc4ccncc4c3)[C@](C)(O)C[C@@H](C)CN[C@H](C)[C@@H](O)[C@](C)(O)[C@@H](CC)OC(=O)[C@@H]2C)C[C@@]1(C)OC [Example E-85],E-85* (MIC ≤ 64 μg/mL for at least one BRD strain)
24,CCCNC[C@]1(O)[C@H](C)O[C@@H](O[C@H]2[C@H](C)[C@@H](O[C@@H]3O[C@H](C)C[C@H](N(C)C)[C@H]3Oc3ccc(OC)c(OCC)c3)[C@](C)(O)C[C@@H](C)CN[C@H](C)[C@@H](O)[C@](C)(O)[C@@H](CC)OC(=O)[C@@H]2C)C[C@@]1(C)OC [Example E-88],E-88* (MIC ≤ 64 μg/mL for at least one BRD strain)
25,CCCNC[C@]1(O)[C@H](C)O[C@@H](O[C@H]2[C@H](C)[C@@H](O[C@@H]3O[C@H](C)C[C@H](N(C)C)[C@H]3Oc3ccc(C(=O)N4CCCC4)cc3)[C@](C)(O)C[C@@H](C)CN[C@H](C)[C@@H](O)[C@](C)(O)[C@@H](CC)OC(=O)[C@@H]2C)C[C@@]1(C)OC [Example E-95],E-95* (MIC ≤ 64 μg/mL for at least one BRD strain)
26,CCCNC[C@]1(O)[C@H](C)O[C@@H](O[C@H]2[C@H](C)[C@@H](O[C@@H]3O[C@H](C)C[C@H](N(C)C)[C@H]3Oc3ccccc3OCC)[C@](C)(O)C[C@@H](C)CN[C@H](C)[C@@H](O)[C@](C)(O)[C@@H](CC)OC(=O)[C@@H]2C)C[C@@]1(C)OC [Example E-96],E-96* (MIC ≤ 64 μg/mL for at least one BRD strain)
